According to patent US20040029208A1, “Assay method and kit for testing biological material for exposure to stress using biomarkers” (priority 2000, published 2004):

Test system: Anagallis arvensis
Experiment: TLC plant biomarker pattern after herbicide spraying (greenhouse)
Format: in vivo
Protocol: The experiments were performed in the green-house at the National Environmental Research Institute, Silkeborg, Denmark. All the seeds needed light to germinate, and were sown at the soil surface in individual 11 cm pots. The soil used during the experiments contained: (SM Growing Mould (Growing medium by special soil (sphagnum) added clay granulate), 0-30 mm; grade of turnover 55-75; added per m^3: 3 kg lime (white chalk), 1.5 kg dolit chalk, 40 kg clay granulate; Fertilizer added granulate: NO3-N: 55.0 g; NH4-N: 65.0 g; P: 106.6 g; K: 224.0 g; Mg: 22 g; Micro nutrients added in chelate form, Mo in uorganic form: B-Boron: 1 g; Cu-copper: 6 g; Mn-Manganese: 3 g; Zinc-Zn: 3 g: Fe-iron: 6 g; Mo- molybdenum: 1.4 g).
During the experiments plants were watered from below, and the temperature in the green-house was maintained between 15° C. and 25° C. with variations due to external weather, and the photoperiod was 16th daylight. The green-house is divided into different units, which allowed for the separate maintenance of the control plants from the sprayed plants to avoid undesirable effects due to vapour drift.
Glyphosate (Roundup Bio (360 g L^−1) was supplied by Monsanto Denmark A/S. Recommended field dose=1,44 kg a.i. ha^−1. In all the experiments, an automatic sprayer (designed in Denmark by Jens Kristensen 1994) was used where the herbicide application is achieved by moving boom equipment with two ordinary hydraulic flat fan nozzles (Hardi 4110-16). Two pots per spray event were placed in the middle of the spray chamber at 50 cm distance from the nozzle, delivering 200 L of water per-hectare with a desired herbicide concentration (working pressure 2 bars; speed of spray boom=4.7 km h^−1). The spraying was performed starting with the lowest concentration first, progressing towards the highest concentration. Between each herbicide, the sprayer was thoroughly rinsed several times with water. The control plants were sprayed with water.
The fresh plant material was pressed using a hand press. The extract was immediately centrifuged. (3000 rpm) for 10 minutes. The supernatant was used for analysis. The extracts were kept cool or right above 0° C. during the test to avoid decomposition of biomarkers.
Freeze-dried plant material was crushed and 250 mg was extracted with 5.00 ml 75% ethanol in an ultrasonic bath for 2 hours. The temperature was kept <0° C. (using ice) during the extraction to avoid decomposition of biomarkers. The extract was centrifuged (3000 rpm) for 10 minutes. The supematant was used for analysis and were kept cool during the test to avoid decomposition of biomarkers.
The two extracts (freshtfresh ethanol) were applicated immediately on a TLC plate (10 μl on both TLC-Plate types (see below) using cool air-drying. The 75% ethanolic extract was applicated 10 μl on Silica-gel TLC-plates and 5 μl on Cellulose TLC-plates (see below). The fresh/fresh ethanolic extractsare recommended to perform if fresh plant material are to be analysed (field-test). The freeze-dried or frozen plant material extraction Is recommended if the analysis are performed in the laboratory.
[…] Derivatisation: Stock solution 1:50% sulfuric acid in 96% ethanol; Stock solution 2: 2% vanillin in absolut alcohol; Derivatisation-solvent, Fresh produced before us, stock solution 1 and stock solution 2 (1:10); Aftercare: 120° C. in 2-3 min. The plate is valuated visually. The system detects higher alcoholics, phenolic compounds, steroids and etheric oils (Stahl 1969), terpenoids, phenyl propanolds, phenolic compounds (Wagner etea. 1984)
TLC-System 7: HPTLC-Alufolie Silica Gel 60 F2u, Merck 1.05548 (10×10 cm); 10 μl plant extracts plants exposed to glyphosate and control plants; eluted in n-butanol: acetic acid: water (4:1:5) (upper phase after 5 minutes shaking). Derivatisation: 0,5 g p-anisaldehyde diluted in 10 ml conc. acetic acid and 85 ml absolute alcohol is and 5 ml conc. sulfuric acid (added in the following row). The plate is heated to. […]

## O=C(O)CNCP(=O)(O)O [Glyphosate]
Roundup Bio, Anagallis arvensis
  LC: lowest dose of concentration of the herbicide with phytochemical changes in all the TLC-Systems: 1% of field dose
TLC 1 (non-specific compounds)
  Min. of label dose of herbicide with effect: 1%
TLC 6 (lipids and terpens)
  Min. of label dose of herbicide with effect: 1%
TLC 4d (amino acids)
  Min. of label dose of herbicide with effect: 1%
